Measurements from patent publication US12371454B2, “Cyclic peptide compound having Kras inhibitory action” (priority 2019, dated 2025).
Positions of bridges follow the written chain, without caps; N, C: chain ends. Non-standard residues stand in square brackets, D forms with d. Residues, ends and D or L forms follow the SMILES beside them. *: point of attachment. hPhe(3,5-F2-4-CF3) = N[C@@H](CCc1cc(F)c(C(F)(F)F)c(F)c1)C(=O)O; hPhe(3-Cl-4-CF3) = N[C@@H](CCc1ccc(C(F)(F)F)c(Cl)c1)C(=O)O; hPhe(3-F,4-CF3) = N[C@@H](CCc1ccc(C(F)(F)F)c(F)c1)C(=O)O; NMePhe(4-CF3) = CN[C@@H](Cc1ccc(C(F)(F)F)cc1)C(=O)O; 3Oxa8azabicyclo(3.2.1)octane = C1CC2COCC1N2*; NMePhe(4-Me) = CN[C@@H](Cc1ccc(C)cc1)C(=O)O; NMeAla(cPent) = CN[C@@H](CC1CCCC1)C(=O)O; NMeGly(cPent) = CN[C@H](C(=O)O)C1CCCC1; NMeCha = CN[C@@H](CC1CCCCC1)C(=O)O; cisHyp = O=C(O)[C@@H]1C[C@H](O)CN1; Hyp = O=C(O)[C@@H]1C[C@@H](O)CN1; NMeChg = CN[C@H](C(=O)O)C1CCCCC1; NMeD = CN[C@@H](CC(=O)O)C(=O)O; NMeL = CN[C@@H](CC(C)C)C(=O)O; dNMeAbu = CC[C@@H](NC)C(=O)O; d(β3hA) = C[C@@H](N)CC(=O)O; NMeS = CN[C@@H](CO)C(=O)O; NMeA = CN[C@@H](C)C(=O)O; Piperidide = C1CCN(*)CC1; dNMeA = CN[C@H](C)C(=O)O; Ac5c = NC1(C(=O)O)CCCC1; Aze = O=C(O)[C@@H]1CCN1; Ac4c = NC1(C(=O)O)CCC1; Sar = CNCC(=O)O; Propyl = CCC*

Tested on: Human pancreatic cancer cell line AsPC-1
Test: Measurement of AsPC-1 cell growth inhibition (AsPC-1 CGI)
Assay type: cell-based
Settings: 96 h
Outline: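 AsPC-1 cells in 15% FBS RPMI-1640 were exposed to test compound for 96 hours at 37° C, with CellTiter-Glo as endpoint.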

IC50 [nM] | Compound
100 to 500 | CC[C@H](C)[C@@H]1NC(=O)[C@H](C)N(C)C(=O)C[C@@H](C)NC(=O)[C@H](C2CCCC2)N(C)C(=O)C2(CCCC2)NC(=O)[C@@H]2CCCN2C(=O)[C@H](CCc2ccc(C(F)(F)F)c(Cl)c2)NC(=O)CN(C)C(=O)[C@H](Cc2ccc(C)cc2)N(C)C(=O)CN(C)C(=O)CN(C)C1=O [Compound 1485] (cyclo([Ac5c][NMeGly(cPent)][d(β3hA)][NMeA]I[Sar][Sar][NMePhe(4-Me)][Sar][hPhe(3-Cl-4-CF3)]P))
100 to 500 | CC[C@H](C)[C@@H]1NC(=O)[C@H](C)N(C)C(=O)C[C@@H](C)NC(=O)[C@H](C2CCCC2)N(C)C(=O)C2(CCC2)NC(=O)[C@@H]2CCCN2C(=O)[C@H](CCc2ccc(C(F)(F)F)c(Cl)c2)NC(=O)CN(C)C(=O)[C@H](Cc2ccc(C(F)(F)F)cc2)N(C)C(=O)CN(C)C(=O)CN(C)C1=O [Compound 1486] (cyclo([Ac4c][NMeGly(cPent)][d(β3hA)][NMeA]I[Sar][Sar][NMePhe(4-CF3)][Sar][hPhe(3-Cl-4-CF3)]P))
50 to 100 | CC[C@H](C)[C@@H]1NC(=O)[C@H](CC(C)C)N(C)C(=O)C[C@@H](C)NC(=O)[C@H](C2CCCC2)N(C)C(=O)C2(CCCC2)NC(=O)[C@@H]2CCCN2C(=O)[C@H](CCc2ccc(C(F)(F)F)c(Cl)c2)NC(=O)CN(C)C(=O)[C@H](Cc2ccc(C(F)(F)F)cc2)N(C)C(=O)[C@@H]2CCN2C(=O)CN(C)C1=O [Compound 1496] (cyclo([Ac5c][NMeGly(cPent)][d(β3hA)][NMeL]I[Sar][Aze][NMePhe(4-CF3)][Sar][hPhe(3-Cl-4-CF3)]P))
100 to 500 | CC[C@H](C)[C@@H]1NC(=O)[C@H](C)N(C)C(=O)C[C@@H](C)NC(=O)[C@H](C2CCCC2)N(C)C(=O)C2(CCCC2)NC(=O)[C@@H]2CCCN2C(=O)[C@H](CCc2ccc(C(F)(F)F)c(Cl)c2)NC(=O)[C@@H](C)N(C)C(=O)[C@H](Cc2ccc(C(F)(F)F)cc2)N(C)C(=O)[C@@H]2CCN2C(=O)[C@H](C)N(C)C1=O [Compound 1497] (cyclo([Ac5c][NMeGly(cPent)][d(β3hA)][NMeA]I[NMeA][Aze][NMePhe(4-CF3)][dNMeA][hPhe(3-Cl-4-CF3)]P))
100 to 500 | CC[C@H](C)[C@@H]1NC(=O)[C@H](CC(C)C)N(C)C(=O)C[C@@H](C)NC(=O)[C@H](C2CCCC2)N(C)C(=O)C2(CCCC2)NC(=O)[C@@H]2CCCN2C(=O)[C@H](CCc2ccc(C(F)(F)F)c(Cl)c2)NC(=O)CN(C)C(=O)[C@H](CC2CCCCC2)N(C)C(=O)[C@@H]2CCN2C(=O)CN(C)C1=O [Compound 1499] (cyclo([Ac5c][NMeGly(cPent)][d(β3hA)][NMeL]I[Sar][Aze][NMeCha][Sar][hPhe(3-Cl-4-CF3)]P))

Further lines, the molecule ahead of its results:

Compound | IC50 [nM]
CCCOC[C@H]1C(=O)N(C)CC(=O)N[C@@H](CCc2cc(F)c(C(F)(F)F)c(F)c2)C(=O)N2CCC[C@H]2C(=O)NC2(CCCC2)C(=O)N(C)[C@@H](C2CCCC2)C(=O)N(C)[C@H](C(=O)N2C3CCC2COC3)CC(=O)N(C)[C@@H](CC(C)C)C(=O)N[C@@H]([C@@H](C)CC)C(=O)N(C)[C@@H](C)C(=O)N2CC[C@H]2C(=O)N1C [Compound 1355] ([NMeL]I[NMeA][Aze][NMeS](Propyl)[Sar][hPhe(3,5-F2-4-CF3)]P[Ac5c][NMeGly(cPent)][NMeD]-{3Oxa8azabicyclo(3.2.1)octane}; lactam N-11) | 20 to 50
CCCOC[C@H]1C(=O)N(C)CC(=O)N[C@@H](CCc2ccc(C(F)(F)F)c(Cl)c2)C(=O)N2CCC[C@H]2C(=O)NC2(CCCC2)C(=O)N(C)[C@@H](C2CCCC2)C(=O)N(C)[C@H](C(=O)N2C3CCC2COC3)CC(=O)N(C)[C@@H](CC2CCCC2)C(=O)N[C@@H]([C@@H](C)CC)C(=O)N[C@@H](C)C(=O)N2CC[C@H]2C(=O)N1C [Compound 1359] ([NMeAla(cPent)]IA[Aze][NMeS](Propyl)[Sar][hPhe(3-Cl-4-CF3)]P[Ac5c][NMeGly(cPent)][NMeD]-{3Oxa8azabicyclo(3.2.1)octane}; lactam N-11) | 50 to 100
CC[C@H](C)[C@@H]1NC(=O)[C@H](CC(C)C)N(C)C(=O)C[C@@H](C(=O)N2CCCCC2)N(C)C(=O)[C@H](C2CCCCC2)N(C)C(=O)C2(CCCC2)NC(=O)[C@@H]2C[C@H](O)CN2C(=O)[C@H](CCc2ccc(C(F)(F)F)c(Cl)c2)NC(=O)CN(C)C(=O)[C@H](CC2CCCCC2)N(C)C(=O)CN(C)C(=O)CN(C)C1=O [Compound 1374, (3S,9S,18S,21S,25S,28S,34S,36S)-3-[2-[3-chloro-4-(trifluoromethyl)phenyl]ethyl]-28-cyclohexyl-9-(cyclohexylmethyl)-36-hydroxy-21-isobutyl-7,10,13,16,22,26,29-heptamethyl-18-[(1S)-1-methylpropyl]-25-(piperidine-1-carbonyl)spiro[1,4,7,10,13,16,19,22,26,29,32-undecazabicyclo[32.3.0]heptatriacontane-31,1′-cyclopentane]-2,5,8,11,14,17,20,23,27,30,33-undecone] ([NMeL]I[Sar][Sar][NMeCha][Sar][hPhe(3-Cl-4-CF3)][cisHyp][Ac5c][NMeChg][NMeD]-Piperidide; lactam N-11) | 50 to 100
CC[C@H](C)[C@@H]1NC(=O)[C@H](CC(C)C)N(C)C(=O)C[C@@H](C(=O)N2CCCCC2)N(C)C(=O)[C@H](C2CCCCC2)N(C)C(=O)C2(CCCC2)NC(=O)[C@@H]2C[C@@H](O)CN2C(=O)[C@H](CCc2ccc(C(F)(F)F)c(Cl)c2)NC(=O)CN(C)C(=O)[C@H](CC2CCCCC2)N(C)C(=O)CN(C)C(=O)CN(C)C1=O [Compound 1376, (3S,9S,18S,21S,25S,28S,34S,36R)-3-[2-[3-chloro-4-(trifluoromethyl)phenyl]ethyl]-28-cyclohexyl-9-(cyclohexylmethyl)-36-hydroxy-21-isobutyl-7,10,13,16,22,26,29-heptamethyl-18-[(1S)-1-methylpropyl]-25-(piperidine-1-carbonyl)spiro[1,4,7,10,13,16,19,22,26,29,32-undecazabicyclo[32.3.0]heptatriacontane-31,1′-cyclopentane]-2,5,8,11,14,17,20,23,27,30,33-undecone] ([NMeL]I[Sar][Sar][NMeCha][Sar][hPhe(3-Cl-4-CF3)][Hyp][Ac5c][NMeChg][NMeD]-Piperidide; lactam N-11) | 100 to 500
CC[C@@H]1C(=O)NC2(CCCC2)C(=O)N(C)[C@@H](C2CCCC2)C(=O)N(C)[C@H](C(=O)N2CCCCC2)CC(=O)N(C)[C@@H](CC(C)C)C(=O)N[C@@H]([C@@H](C)CC)C(=O)N(C)CC(=O)N(C)CC(=O)N(C)[C@@H](CC2CCCCC2)C(=O)N(C)CC(=O)N[C@@H](CCc2ccc(C(F)(F)F)c(Cl)c2)C(=O)N1C [Compound 1439] ([NMeL]I[Sar][Sar][NMeCha][Sar][hPhe(3-Cl-4-CF3)][dNMeAbu][Ac5c][NMeGly(cPent)][NMeD]-Piperidide; lactam N-11) | 100 to 500
CC[C@H](C)[C@@H]1NC(=O)[C@H](CC(C)C)N(C)C(=O)C[C@@H](C)NC(=O)[C@H](C2CCCC2)N(C)C(=O)C2(CCCC2)NC(=O)[C@@H]2CCCN2C(=O)[C@H](CCc2ccc(C(F)(F)F)c(Cl)c2)NC(=O)CN(C)C(=O)[C@H](Cc2ccc(C)cc2)N(C)C(=O)CN(C)C(=O)CN(C)C1=O [Compound 1471, (3S,9S,18S,21S,25R,28S,34S)-3-[2-[3-chloro-4-(trifluoromethyl)phenyl]ethyl]-28-cyclopentyl-21-isobutyl-7,10,13,16,22,25,29-heptamethyl-18-[(1S)-1-methylpropyl]-9-(p-tolylmethyl)spiro[1,4,7,10,13,16,19,22,26,29,32-undecazabicyclo[32.3.0]heptatriacontane-31,1′-cyclopentane]-2,5,8,11,14,17,20,23,27,30,33-undecone] (cyclo([Ac5c][NMeGly(cPent)][d(β3hA)][NMeL]I[Sar][Sar][NMePhe(4-Me)][Sar][hPhe(3-Cl-4-CF3)]P)) | 100 to 500
CC[C@H](C)[C@@H]1NC(=O)[C@H](CC(C)C)N(C)C(=O)C[C@@H](C)NC(=O)[C@H](C2CCCC2)N(C)C(=O)C2(CCCC2)NC(=O)[C@@H]2CCCN2C(=O)[C@H](CCc2ccc(C(F)(F)F)c(Cl)c2)NC(=O)CN(C)C(=O)[C@H](Cc2ccc(C(F)(F)F)cc2)N(C)C(=O)[C@@H]2CCN2C(=O)[C@H](C)N(C)C1=O [Compound 1475] (cyclo([Ac5c][NMeGly(cPent)][d(β3hA)][NMeL]I[NMeA][Aze][NMePhe(4-CF3)][Sar][hPhe(3-Cl-4-CF3)]P)) | 50 to 100
CC[C@H](C)[C@@H]1NC(=O)[C@H](CC(C)C)N(C)C(=O)C[C@@H](C)NC(=O)[C@H](C2CCCC2)N(C)C(=O)C2(CCCC2)NC(=O)[C@@H]2CCCN2C(=O)[C@H](CCc2ccc(C(F)(F)F)c(Cl)c2)NC(=O)CN(C)C(=O)[C@H](CC2CCCCC2)N(C)C(=O)[C@@H]2CCN2C(=O)[C@H](C)N(C)C1=O [Compound 1477] (cyclo([Ac5c][NMeGly(cPent)][d(β3hA)][NMeL]I[NMeA][Aze][NMeCha][Sar][hPhe(3-Cl-4-CF3)]P)) | 100 to 500
CC[C@H](C)[C@@H]1NC(=O)[C@H](CC(C)C)N(C)C(=O)C[C@@H](C)NC(=O)[C@H](C2CCCC2)N(C)C(=O)C2(CCCC2)NC(=O)[C@@H]2CCCN2C(=O)[C@H](CCc2ccc(C(F)(F)F)c(Cl)c2)NC(=O)[C@@H](C)N(C)C(=O)[C@H](Cc2ccc(C(F)(F)F)cc2)N(C)C(=O)[C@@H]2CCN2C(=O)[C@H](C)N(C)C1=O [Compound 1482] (cyclo([Ac5c][NMeGly(cPent)][d(β3hA)][NMeL]I[NMeA][Aze][NMePhe(4-CF3)][dNMeA][hPhe(3-Cl-4-CF3)]P)) | 100 to 500
CC[C@H](C)[C@@H]1NC(=O)[C@H](CC(C)C)N(C)C(=O)C[C@@H](C)NC(=O)[C@H](CC(C)C)N(C)C(=O)C2(CCCC2)NC(=O)[C@@H]2C[C@@H](O)CN2C(=O)[C@H](CCc2ccc(C(F)(F)F)c(F)c2)NC(=O)CN(C)C(=O)[C@H](CC2CCCCC2)N(C)C(=O)CN(C)C(=O)CN(C)C1=O [Compound 1483, (3S,9S,18S,21S,25R,28S,34S,36R)-9-(cyclohexylmethyl)-3-[2-[3-fluoro-4-(trifluoromethyl)phenyl]ethyl]-36-hydroxy-21,28-diisobutyl-7,10,13,16,22,25,29-heptamethyl-18-[(1S)-1-methylpropyl]spiro[1,4,7,10,13,16,19,22,26,29,32-undecazabicyclo[32.3.0]heptatriacontane-31,1′-cyclopentane]-2,5,8,11,14,17,20,23,27,30,33-undecone] (cyclo([Ac5c][NMeL][d(β3hA)][NMeL]I[Sar][Sar][NMeCha][Sar][hPhe(3-F,4-CF3)][Hyp])) | > 500
